According to patent US5424296A, “2-Halo-2'-deoxyadenosines as therapeutic agents against malignant astrocytoma” (The Scripps Research Institute, priority 1993, dated 1995):
Where two headings read alike, the source gives them in different places.

Experiments:
renal cell carcinoma = assay: Phase I study, tumor response in renal cell carcinoma; assay type: in vivo, human; details: two patients
Description: (§1) A response to this treatment process can be determined according to the criteria proposed by Macdonald et al., J. Clin. Oncol., 8:1277-1280 (1990). A complete response requires the disappearance of all enhancing tumor on consecutive CAT or MRI scans at least one month apart, off steroids, and that the patient be neurologically stable or improved. A partial response is defined as a greater or equal to 50 percent decrease in size (largest cross-sectional area) of enhancing tumor on consecutive CAT or MRI scans at least one month apart, steroids stable or reduced, and that the patient be neurologically stable or improved. All other tumor responses were designated as no response.
(§2) The patients received continuous infusions of either 0.10, 0.15 or 0.20 mg/kg/day over seven day time periods in up to five monthly cycles. The patients with malignant astrocytomas received either 0.10 or 0.15 mg/kg/day; none receiving 0.20 mg/kg/day.
(§3) The finally diluted solution was infused through central venus access using an infusion pump device (Pharmacia Deltec Cadd) for out-patients, or infused by usual venus infusion for in-patients.
(§4) Each of the patients, except three (one renal cell carcinoma and two malignant melanoma) patients, had received a prior treatment. Each of the patients with malignant astrocytoma had been treated both surgically and with X-rays or by chemotherapy.

[1] = system: Mature BFU-E (mBFU-E) cells; details: read-out: IC50 (concentration required to inhibit 50 percent of growth); mBFU-E cells from normal patients; cited from earlier work
neutrophils [2] = details: cutaneous T cell lymphoma, 0.1 mg/kg per day over 7 days; cited from earlier work
Phase I study, toxicity = assay type: in vivo, human
Protocol: as §2, §3

[3] = system: colony forming unit-erythroid (CFU-E) cells; details: read-out: IC50 (concentration required to inhibit 50 percent of growth); CFU-E cells from normal patients; cited from earlier work
[4] = system: Colony forming unit-granulocyte macrophage (CFU-GM) cells; details: read-out: IC50 (concentration required to inhibit 50 percent of growth); CFU-GM cells from normal patients; cited from earlier work
[5] = system: Erythroid progenitor cells; details: cultured marrow and blood cells from normal patients; cited from earlier work
CML in blast crisis = details: cited from earlier work
granulocyte [6] = assay: Clinical treatment of multiple sclerosis, granulocyte counts; assay type: in vivo, human; details: about 0.1 mg/kg/day, seven day courses of continuous infusion, after several courses
malignant astrocytoma = assay: Phase I study, tumor response in malignant astrocytoma; assay type: in vivo, human
Description: as §1, §2, §3, §4

granulocyte [7] = details: hairy cell leukemia, cited from earlier work
malignant melanoma = assay: Phase I study, tumor response in malignant melanoma; assay type: in vivo, human; details: twelve patients
Description: as §1, §2, §3, §4

[8] = system: Primitive burst-forming unit-erythroid (pBFU-E) cells; details: read-out: IC50 (concentration required to inhibit 50 percent of growth); pBFU-E cells from normal patients; cited from earlier work
neutrophils [9] = details: chronic lymphocytic leukemia, serum levels less than 10 nM, in most cases; cited from earlier work
CFU-GM cells = details: 100 nM 2-CdA; cited from earlier work

For Nc1nc(Cl)nc2c1ncn2[C@H]1C[C@H](O)[C@@H](CO)O1 [2-CdA, 2-chloro-2'-deoxyadenosine], the “patients with partial response” value (renal cell carcinoma) is given as “None”, the IC50 [1] is given as 0.038 µM and the “resistance of neutrophils relative to monocytes and lymphocytes” value (neutrophils [2]) is given as “more resistant to 2-CdA than their monocytes and lymphocytes”. The myelosuppression per cycles (Phase I study, toxicity; 0.10 mg/kg/day) was 1/18, the myelosuppression per cycles (Phase I study, toxicity; 0.15 mg/kg/day) was 5/22 and the myelosuppression per cycles (Phase I study, toxicity; 0.20 mg/kg/day) was 3/4. For the same compound, the “myelosuppression, dose dependence” value (Phase I study, toxicity; 0.10, 0.15, 0.20 mg/kg/day) was “increased with dosage”, the principal toxic effect (Phase I study, toxicity; all patients) was “Myelosuppression” and the “alopecia, nausea, vomiting, cardiopulmonary, renal or hepatic toxicity” value (Phase I study, toxicity; any patient of the study) was “No alopecia, nausea, vomiting, cardiopulmonary, renal or hepatic toxicity occurred”. For the same compound, the “myelosuppression in patients with previous biologic therapy” value (Phase I study, toxicity; in vivo) was “all of the patients with previous biologic therapy treatment developed myelosuppression”, the “patients with prior chemotherapy among those who developed myelosuppression” value (Phase I study, toxicity; in vivo) was “five of eight” and the “patients with prior chemotherapy among those without myelosuppression” value (Phase I study, toxicity; in vivo) was “two of thirteen”. The “patients with prior biologic therapies among those exhibiting myelosuppression” value (Phase I study, toxicity; interferon, interleukin-2, or lymphocyte-activated killer cells) was “Four of the eight”, the patients exhibiting myelosuppression (Phase I study, toxicity; malignant astrocytoma (GBM), seven patients) was “Two of the seven” and the “patients exhibiting delayed neurotoxicities” value (Phase I study, toxicity; malignant melanoma with prior therapy, unknown whether directly from 2-CdA) was “Two”. The type of myelosuppression (Phase I study, toxicity; one astrocytoma patient with prior surgical and X-ray treatments, after the fifth cycle) was “both neutropenia and thrombocytopenia”, the “myelosuppression (grades 3 or 4 neutropenia or thrombocytopenia), frequency by pretreatment” value (Phase I study, toxicity; prior exposure to systemic chemotherapy) was “more frequent in patients having had prior exposure to systemic chemotherapy” and the IC50 [3] was 0.056 µM. For the same compound, the IC50 [4] was 0.016 µM, the “sensitivity of erythroid progenitor cells to 2-CdA” value [5] was “dose-dependent sensitivity to 2-CdA, with that sensitivity decreasing as the stage of progenitor maturation increased” and the detectable tumor (CML in blast crisis; another of two patients) was “loss of detectable tumor”. The blast count (CML in blast crisis; one of two patients) was “decrease in blast count”, the granulocyte counts (granulocyte [6]) was “substantially unchanged” and the “duration of partial response” value (malignant astrocytoma; patient No. 1, grade 2 astrocytoma, four cycles at 0.10 mg/kg/day) was “seven”. For the same compound, the “coronal MRI of brain after treatment” value (malignant astrocytoma; patient No. 1, intravenous contrast) was “resolution of tumor enhancement”, the “axial spin echo MRI of brain after treatment” value (malignant astrocytoma; patient No. 12) was “complete regression of the edema and shrinkage of the cyst” and the “cyst on sagittal T1-weighted imaging after treatment” value (malignant astrocytoma; patient No. 12) was “smaller in size and higher in signal intensity”. For the same compound, the “sagittal T1-weighted imaging of brain after treatment” value (malignant astrocytoma; patient No. 12) was “complete regression of the temporal lobe swelling, with restoration of a normal sulcal pattern”, the “duration of partial response” value (malignant astrocytoma; patient No. 12, GBM, five cycles at 0.15 mg/kg/day) was “nine” and the “responding patients (partial response)” value (malignant astrocytoma; two of seven malignant astrocytoma patients, 0.1 or 0.15 mg/kg/day) was 28.6%. The “median duration of partial response” value (malignant astrocytoma; two responding patients) was “eight”, the granulocyte counts (granulocyte [7]; transient neutropenia) was “under 500 per microliter” and the neutropenia (granulocyte [7]; particularly acute in patients already neutropenic) was “transient neutropenia”. For the same compound, the “patients with partial response” value (malignant melanoma) was “None”, the IC50 [8] was 0.019 µM and the neutrophil count (neutrophils [9]) was “increase in neutrophil count”. For the same compound, the “reduction of growth of CFU-GM cells” value (CFU-GM cells) was 60%.
